Key:
[1] = system: PTEN/AKT pathway; assay: PTEN/AKT pathway expression in SNU-398 cells after treatment (Western blot, mRNA); assay type: cell-based, human; details: SNU-398
Source text: The induction of Pten expression was not affected when wt peptide was administrated together with a Pten inhibitor. AKT, a molecule with levels of phosphorylation controlled by the expression of Pten was affected by the wt peptide addition accordingly. […] The effect of wt peptide on pAKT was abrogated by the Pten inhibitor. […] In contrast, the protein expression level of endogenous Pten was very high in the none-SALL4 expressing SNU387 cells.
Then tested was whether this peptide could reverse the repressive effect of SALL4 on its target genes. The focus was onPTEN, since it is implicated in SALL4-mediated leukemogenesis (Yang et al., Blood, 112:805-813 (2008); Lu et al., PLoS One, 4:e5577 (2009)). In addition, it was previously reported that SALL4 could specifically bind to the PTEN promoter region in a chromatin immunoprecipitation (ChIP) assay (Lu et al., PLoS One, 4:e5577 (2009)). When SALL4 was overexpressed in 293T cells, an enrichment of SALL4 as well as decreased H3 acetylation at this binding site was observed, which correlated with decreased PTEN RNA expression (Lu et al., PLoS One, 4:e5577 (2009))). Therefore, it was hypothesized that SALL4 could recruit the HDAC/NuRD complex to repress PTEN, and that the wild type peptide would compete with endogenous SALL4 in recruiting the HDAC/NuRD complex to the PTEN promoter, and release the repression effect of SALL4 on PTEN. Furthermore, this model would predict that wild type peptide treatment of SALL4-expressing cells would lead to increased epigenetic markers of gene activation, such as H3 acetylation, at the PTEN promoter binding site, as well as an increase in PTEN expression. To test this possibility, SNU-398 cells were treated with scrambled or wild type peptide and subsequently evaluated for PTEN expression and H3 acetylation at the SALL4 binding site at the PTEN promoter region. […] Therefore, the results herein are compatible with the model that SALL4 recruits HDACs to repress PTEN expression, and blocking the SALL4-HDAC interaction with the wild type peptide results in increased expression of PTEN.
To confirm the involvement of PTEN tumor suppressor in SALL4 peptide-induced reduction of number of viable HCC cells, PTEN expression was analyzed by western blot upon drug treatment. […] Whether the increase in PTEN expression upon SALL4 peptide treatment has an effect in PI3K signalling by dephosphorylating AKT was examined.
To confirm the involvement of the PTEN tumor suppressor in the SALL4 peptide-induced reduction of HCC cell viability, PTEN expression was analyzed by western blot upon drug treatment. […] If the increase in PTEN expression has an effect in PI3K signaling was next examined. PTEN functions as a phosphatase to dephosphorylate AKT.

[2] = system: SNU-398 cells; assay: Cell viability assay (MTT/MTS); assay type: cell-based, human; details: for cell viability on co-treatment with wt peptide (rescue): SNU-398, wt peptide + PTEN inhibitor
Protocol: (§1) Cell viability was determined 72 hours after peptide treatments. Absorbance at 490 nm is directly correlated to cell viability. Wild type functional SALL4 peptide (wt), mutant non-functional SALL4 peptide (Mut.), trichostatin A (TSA), scrambled control peptide (Scr.), wild type peptide+PTEN inhibitor SF1670 (wt+Inh.) were given to the cells at the indicated concentration. PTEN inhibitor concentration was 400 nM. (31C, 31D) Western blot analyses of the effects of peptides on PTEN, AKT, and pAKT expression on SNU-398 (31C) and SNU-387 (31D) cells 72 hours following peptide treatments. 20 μM of wt or Scr. peptide or 100 nM of TSA was used. PTEN inhibitor concentration was 400 nM. (31E) Representative images show NOD/SCID mice transplanted with Scr peptide- and wt peptide-treated SNU-398 cells (left) and the dissected subcutaneous tumors (right). Arrow indicates subcutaneous tumor. (31F) Growth curve of subcutaneous tumors (left panel) and tumor weight of tumors dissected at day 26 post-transplantation (right panel). Results are mean±s.d. n=5; * P<0.05. (31G) Representative images show NOD/SCID mice transplanted with 3 million SNU-398 cells at the left flank and treated intraperitoneally for five consecutive days with 56 mg/kg body weight TAT-Mut. peptide or 60 mg/kg body weight wt peptide (top panel) and the dissected subcutaneous tumors (bottom). (31H) Tumor weight of tumors dissected at day 18 post-transplantation and post-treatment of mice treated intraperitoneally with TAT fusion peptides as described in 5 g. Results are mean±s.d. n=5; * P<0.05.
(§2) Cell viability assay (MTT) (Invitrogen) was performed according to the manufacturer's instructions. Briefly—10000 cells were seeded in 100 ul medium in 96 well plates. The next day cells were treated as indicated on the figures. At the designated time after the treatment 20 ul of 5 mg/ml MTT solution was added to each well. After 3.5 h incubation at 37 C the medium was removed and the reaction was terminated with a solution of 4 mM HCl, 0.1% Nondet P-40 (NP40) all in isopropanol in dark on orbital shaker for […]. at room temperature. The absorbance was read at 590 nm with a reference filter of 620 nm in Spectromax M3 (ABI) spectrophotometer.
(§3) Multiple leukemic and solid tumor cancer cell lines with high or low/no SALL4 expression (FIG. 10A) were chosen to test the biological effect(s) of the wild type peptide. Wild type or scrambled peptide was delivered into tumor cells at various concentrations, and their effects on cells were evaluated 72 hours post-treatment by the MTS cell viability assay. […] The effect of wild type peptide is SALL4-specific, as it had no effect on KBM5, an AML cell line with undetectable endogenous SALL4 expression. We were surprised to see that the wild type peptide had no effect on a high SALL4-expressing endometrioid cancer cell line, AN3CA. This prompted checking whether PTEN, a gene repressed by SALL4 through its interaction with NuRD 27, was present in this cell line. According to the model herein, the function of wild type peptide requires both the expression of SALL4 and intact SALL4 downstream target genes, such as PTEN. In tumor cells with PTEN deletion, even though wild type peptide could compete with endogenous SALL4 in interacting with the HDAC complex, an anti-proliferative effect might not be observed. Therefore, expression of PTEN was evaluated in AN3CA cells along with other cell lines. While PTEN protein was present in all the other cell lines, it was absent in AN3CA cells (FIG. 10C), with reported deletion mutation of the gene in this cell line 40,41. […] Furthermore, the anti-proliferative effect also required certain downstream targets, such as PTEN.
7000 cells were seeded in each wells of a microtiter plate in 100 μL of complete medium. Cells from each treatment were seeded in duplicate. Controls using the same medium without cells were set up in parallel. […]

[3] = system: SNU-387 cells; assay: Cell viability assay (MTT/MTS); assay type: cell-based, human; details: SNU-387, wt peptide + PTEN inhibitor
Protocol: as §1, §2
7000 cells were seeded in each wells of a microtiter plate in 100 μL of complete medium. Cells from each treatment were seeded in duplicate. Controls using the same medium without cells were set up in parallel. At various time points, 317 μg/mL of 3-(4,5-dimethylthiazol-2-yl)-5-(3-carboxymethoxyphenyl)-2-(4-sulfophenyl)-2H-tetrazolium (CellTiter96® AQueous One Solution Cell Proliferation Assay, Promega) was added to each well. After four hours incubation of the tetrazolium salt, absorbance at 490 nm was read by a microplate reader.

[4] = system: KBM5 cells; assay: MTS cell viability assay; assay type: cell-based; details: KBM5, wt peptide + PTEN inhibitor
Protocol: as §3
(§4) To further test whether the effect of wild type peptide on tumor cells is related to PTEN, a PTEN inhibitor (SF1670) was used (Li et al., Blood, 117:6702-6713). […] As a control for the specificity of SALL4, KBM5, a non-SALL4-expressing cell line was also treated with PTEN inhibitor.

[5] = system: THP1 cells; assay: MTS cell viability assay; assay type: cell-based; details: THP1, wt peptide + PTEN inhibitor
Protocol: as §3, §4

[6] = molecular target: T1, HDAC complex (Homo sapiens, UniProt Q09028); assay: Fluorescent polarization competitive binding in SNU-398 nuclear extracts; details: Example 6
T1 construct: endogenous in cells; host or cells: SNU-398 nuclear extract
Protocol: Below are the amino acid sequences of the peptides used in this study. In the mutant peptide (mut), Lys 5 is replaced with an alanine residue. […] In the first lane marked “Input”, 10% of the extracts were subjected to western blot analysis without immunoprecipitation. […] Extracts were subsequently immunoprecipitated with anti-FITC antibody and the complexes pulled down were subjected to an HDAC activity assay as described in the methods. TSA was added at a concentration of 100 nM. Input is the sample in which 10% of the extract was assayed for HDAC activity without the immunoprecipitation step. […] Competitive binding of nonlabeled wild type or scrambled peptides was measured by fluorescent polarization. […] The fluorescent polarization (y axis) is decreased if the FITC-labeled peptide is displaced from a larger complex.
Next tested was the binding affinity of the wild type and scrambled peptides to the HDAC complex. For this, Fluorescent Polarization (FP), a technology based on molecular movement and rotation in which fluorescent molecules are excited with polarized light, was used. If the fluorescent molecules are part of a large complex, they rotate less and the emitted light has high polarity. In contrast, smaller molecules rotate faster and have low polarity (“depolarized”). […] Using this approach, FITC-labeled wild type or scrambled peptides were first mixed with nuclear extracts from SNU-398 cells. Serial dilutions of unlabeled wild type or scrambled peptides were then added as competitors respectively, and measured by FP assay.

T1 sequence (Q09028 whole entry, one chain of several): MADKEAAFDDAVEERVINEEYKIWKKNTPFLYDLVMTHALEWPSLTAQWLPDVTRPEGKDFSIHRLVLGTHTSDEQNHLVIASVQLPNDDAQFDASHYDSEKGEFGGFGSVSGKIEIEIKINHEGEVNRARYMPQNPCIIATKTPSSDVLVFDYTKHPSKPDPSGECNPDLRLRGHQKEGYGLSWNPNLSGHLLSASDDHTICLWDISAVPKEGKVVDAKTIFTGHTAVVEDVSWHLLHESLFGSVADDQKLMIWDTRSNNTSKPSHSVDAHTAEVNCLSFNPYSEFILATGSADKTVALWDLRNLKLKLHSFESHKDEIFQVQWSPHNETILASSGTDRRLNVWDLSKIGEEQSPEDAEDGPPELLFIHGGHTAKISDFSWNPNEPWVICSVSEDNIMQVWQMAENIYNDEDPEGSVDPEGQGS

Molecule	effect of wt peptide on pAKT on co-treatment with PTEN inhibitor ([1]; listed as PTEN inhibitor)	effect of wt peptide on pAKT on co-treatment with PTEN inhibitor ([1]; listed as Pten inhibitor)	cell viability on co-treatment with wt peptide (rescue) [2]	cell viability on co-treatment with wt peptide (rescue) ([2]; listed as PTEN inhibitor)	cell viability on co-treatment with wt peptide (rescue) ([2]; listed as SF-1670)	cell viability on co-treatment with wt peptide [3]	cell viability on co-treatment with wt peptide [4]	cell viability on co-treatment with wt peptide (rescue) [5]	binding affinity by FP [6]	cell viability / number of viable cells ([2]; SNU-398 (high SALL4), 72 h)
CC(C)(C)C(=O)Nc1ccc2c(c1)C(=O)C(=O)c1ccccc1-2 [SF1670, reference compound]	can be rescued	abrogated	able to rescue the phenotype	able to rescue the phenotypes	restored the cell viability to a baseline level	showed no effect as well	showed no effect as well	restored the cell viability to the baseline levels		
NH2-YGRKKRRQRRR-MSAAAQAKPHI-COOH (H-YGRKKRRQRRRMSAAAQAKPHI-OH) [TAT-Mut, reference compound]									minimal binding	did not exhibit such cell killing effect
